Measured values: ChEMBL document CHEMBL3612057, “Discovery of indolizines containing triazine moiety as new leads for the development of antitumoral agents targeting mitotic events” (2015)
The source made the active and inactive calls. The rule behind the calls is not given here.

Legend:
CCRF-CEM = assay: Cytotoxicity against human CCRF-CEM cells assessed as growth inhibition at 10 uM after 24 hrs by SRB assay; type: functional; conditions: read-out: GI
HL-60(TB) = assay: Cytotoxicity against human HL-60(TB) cells assessed as growth inhibition at 10 uM after 24 hrs by SRB assay; type: functional
K562 = assay: Cytotoxicity against human K562 cells assessed as growth inhibition at 10 uM after 24 hrs by SRB assay; type: functional
RPMI-8226 = assay: Cytotoxicity against human RPMI8226 cells assessed as growth inhibition at 10 uM after 24 hrs by SRB assay; type: functional; conditions: RPMI-8226, 24 h, read-out: GI
SR = assay: Cytotoxicity against human SR cells assessed as growth inhibition at 10 uM after 24 hrs by SRB assay; type: functional; conditions: read-out: GI
A549 = assay: Cytotoxicity against human A549 cells assessed as growth inhibition at 10 uM after 24 hrs by SRB assay; type: functional
HOP-62 = assay: Cytotoxicity against human HOP62 cells assessed as growth inhibition at 10 uM after 24 hrs by SRB assay; type: functional
HOP-92 = assay: Cytotoxicity against human HOP92 cells assessed as growth inhibition at 10 uM after 24 hrs by SRB assay; type: functional
NCI-H226 = assay: Cytotoxicity against human NCI-H226 cells assessed as growth inhibition at 10 uM after 24 hrs by SRB assay; type: functional
NCI-H460 = assay: Cytotoxicity against human NCI-H460 cells assessed as growth inhibition at 10 uM after 24 hrs by SRB assay; type: functional
NCI-H522 = assay: Cytotoxicity against human NCI-H522 cells assessed as growth inhibition at 10 uM after 24 hrs by SRB assay; type: functional
HCT-116 = assay: Cytotoxicity against human HCT116 cells assessed as growth inhibition at 10 uM after 24 hrs by SRB assay; type: functional; conditions: HCT-116, 24 h, read-out: GI
SF-295 = assay: Cytotoxicity against human SF295 cells assessed as growth inhibition at 10 uM after 24 hrs by SRB assay; type: functional
SF-539 = assay: Cytotoxicity against human SF539 cells assessed as growth inhibition at 10 uM after 24 hrs by SRB assay; type: functional
SNB-75 = assay: Cytotoxicity against human SNB75 cells assessed as growth inhibition at 10 uM after 24 hrs by SRB assay; type: functional; conditions: SNB-75, 24 h, read-out: GI
U-251 = assay: Cytotoxicity against human U251 cells assessed as growth inhibition at 10 uM after 24 hrs by SRB assay; type: functional
Malme-3M = assay: Cytotoxicity against human MALME-3M cells assessed as growth inhibition at 10 uM after 24 hrs by SRB assay; type: functional
MDA-MB-435 = assay: Cytotoxicity against human MDA-MB-435 cells assessed as growth inhibition at 10 uM after 24 hrs by SRB assay; type: functional
SK-MEL-28 = assay: Cytotoxicity against human SK-MEL-28 cells assessed as growth inhibition at 10 uM after 24 hrs by SRB assay; type: functional
SK-MEL-5 = assay: Cytotoxicity against human SK-MEL-5 cells assessed as growth inhibition at 10 uM after 24 hrs by SRB assay; type: functional; conditions: SK-MEL-5, 24 h, read-out: GI
UACC-257 = assay: Cytotoxicity against human UACC257 cells assessed as growth inhibition at 10 uM after 24 hrs by SRB assay; type: functional
UACC-62 = assay: Cytotoxicity against human UACC62 cells assessed as growth inhibition at 10 uM after 24 hrs by SRB assay; type: functional
OVCAR-3 = assay: Cytotoxicity against human OVCAR3 cells assessed as growth inhibition at 10 uM after 24 hrs by SRB assay; type: functional
OVCAR-4 = assay: Cytotoxicity against human OVCAR4 cells assessed as growth inhibition at 10 uM after 24 hrs by SRB assay; type: functional
OVCAR-8 = assay: Cytotoxicity against human OVCAR8 cells assessed as growth inhibition at 10 uM after 24 hrs by SRB assay; type: functional
NCI/ADR-RES = assay: Cytotoxicity against human NCI/ADR-RES cells assessed as growth inhibition at 10 uM after 24 hrs by SRB assay; type: functional
SK-OV-3 = assay: Cytotoxicity against human SKOV3 cells assessed as growth inhibition at 10 uM after 24 hrs by SRB assay; type: functional
786-0 = assay: Cytotoxicity against human 786-0 cells assessed as growth inhibition at 10 uM after 24 hrs by SRB assay; type: functional
ACHN = assay: Cytotoxicity against human ACHN cells assessed as growth inhibition at 10 uM after 24 hrs by SRB assay; type: functional
CAKI-1 = assay: Cytotoxicity against human CAKI-1 cells assessed as growth inhibition at 10 uM after 24 hrs by SRB assay; type: functional; conditions: CAKI-1, 24 h, read-out: GI
RXF 393 = assay: Cytotoxicity against human RXF393 cells assessed as growth inhibition at 10 uM after 24 hrs by SRB assay; type: functional
TK-10 = assay: Cytotoxicity against human TK10 cells assessed as growth inhibition at 10 uM after 24 hrs by SRB assay; type: functional
PC-3 = assay: Cytotoxicity against human PC3 cells assessed as growth inhibition at 10 uM after 24 hrs by SRB assay; type: functional; conditions: PC-3, 24 h, read-out: GI
MCF7 = assay: Cytotoxicity against human MCF7 cells assessed as growth inhibition at 10 uM after 24 hrs by SRB assay; type: functional; conditions: MCF7, 24 h, read-out: GI
MDA-MB-231 = assay: Cytotoxicity against human MDA-MB-231 cells assessed as growth inhibition at 10 uM after 24 hrs by SRB assay; type: functional; conditions: MDA-MB-231, 24 h, read-out: GI
Hs-578T = assay: Cytotoxicity against human Hs578T cells assessed as growth inhibition at 10 uM after 24 hrs by SRB assay; type: functional
T47D = assay: Cytotoxicity against human T47D cells assessed as growth inhibition at 10 uM after 24 hrs by SRB assay; type: functional; conditions: read-out: GI
Ovis aries = species on record: Ovis aries; assay: Inhibition of sheep tubulin polymerization at 100 uM by fluorescence assay

Compound: COc1nc(OC)nc(-c2cc(C(=O)c3ccc(C)cc3)n3ccccc23)n1
- inhibition of growth at 10 µM (CCRF-CEM): 13%
- growth inhibition (GI) (HL-60(TB)): inactive
- growth inhibition (GI) (K562): inactive
- inhibition of growth at 10 µM (RPMI-8226): 26%
- inhibition of growth at 10 µM (SR): 22%
- growth inhibition (GI) (A549): inactive
- growth inhibition (GI) (HOP-62): inactive
- growth inhibition (GI) (HOP-92): inactive
- growth inhibition (GI) (NCI-H226): inactive
- growth inhibition (GI) (NCI-H460): inactive
- growth inhibition (GI) (NCI-H522): inactive
- inhibition of growth at 10 µM (HCT-116): 12%
- growth inhibition (GI) (SF-295): inactive
- growth inhibition (GI) (SF-539): inactive
- inhibition of growth at 10 µM (SNB-75): 18%
- growth inhibition (GI) (U-251): inactive
- growth inhibition (GI) (Malme-3M): inactive
- growth inhibition (GI) (MDA-MB-435): inactive
- growth inhibition (GI) (SK-MEL-28): inactive
- inhibition of growth at 10 µM (SK-MEL-5): 19%
- growth inhibition (GI) (UACC-257): inactive
- growth inhibition (GI) (UACC-62): inactive
- growth inhibition (GI) (OVCAR-3): inactive
- growth inhibition (GI) (OVCAR-4): inactive
- growth inhibition (GI) (OVCAR-8): inactive
- growth inhibition (GI) (NCI/ADR-RES): inactive
- growth inhibition (GI) (SK-OV-3): inactive
- growth inhibition (GI) (786-0): inactive
- growth inhibition (GI) (ACHN): inactive
- inhibition of growth at 10 µM (CAKI-1): 43%
- growth inhibition (GI) (RXF 393): inactive
- growth inhibition (GI) (TK-10): inactive
- inhibition of growth at 10 µM (PC-3): 13%
- inhibition of growth at 10 µM (MCF7): 10%
- inhibition of growth at 10 µM (MDA-MB-231): 35%
- growth inhibition (GI) (Hs-578T): inactive
- inhibition of growth at 10 µM (T47D): 15%
- inhibition (Ovis aries): inactive
